“And” between values parts separate entries of the source, which are not always exact repeats. Equal values may be shown once.
Settings: 1 gram cod liver oil, 200 ppb spike recovery only
Description: The cryotrap is placed in liquid nitrogen which is replaced as needed throughout the operation. The sample valve is placed in the load position. Samples are placed in the sample chamber and the chamber attached to the apparatus. The coolant/heat valve is adjusted so that the condenser fluid is circulating and at the desired temperature. The vacuum pump is turned on and the vacuum pump valve and sample chamber valve are opened to begin distillation/purging. After five minutes the pressure at the vacuum pump, as measured by a Pirani gauge reads about 0.1 Torr and a Pirani gauge reads less than about 250 Torr at the sample chamber. Distillation continues for another five minutes to complete distillation at which time the sample chamber pressure should be approximately 10 Torr.
Once distillation is complete, the sampling valve is adjusted to the injection position. The liquid nitrogen is removed from the cryotrap and replaced with a beaker of hot (about 90° C.) tap water. The GC/MS then begins to collect data. At this stage, the sample chamber may be removed and the apparatus prepared for another sample. If multiple samples are connected, a new sample chamber may be connected in sequence.

In the case of CCC(C)=O [2-Butanone], the “Oil Recovery (200 ppb spike only)” value is reported as 128 ± 21.5%.

Settings: in H2O; cited from earlier work

Going from Clc1cccc(Cl)c1Cl [1,2,3-Trichloro benzene] to Clc1ccccc1Cl [1,2-Dichlorobenzene], the “SOLUBIL. IN H2O” value rises from 1 PPM to 10000 PPM.

First: Cc1cc(C)cc(C)c1 [1,3,5-Trimethyl benzene]
Second: Cc1ccc(O)c(C)c1 [2,4-Dimethylphenol]
The “SOLUBIL. IN H2O” value of the first is higher: 2000 PPM for the first, 5 PPM for the second.

Compared with Oc1ccccc1Cl [2-Chlorophenol], Cc1ccccc1O [2-Methylphenol] is higher in “SOLUBIL. IN H2O” value: 5 PPM for the first, 775000 PPM for the second.

Compared with Nc1ccccc1[N+](=O)[O-] [2-Nitroaniline], Cc1ccccc1N [o-Toluidine] is higher in “SOLUBIL. IN H2O” value: 5 PPM for the first, 17000 PPM for the second.

Going from Cc1cc(O)ccc1Cl [4-Chloro-3-methyl phenol] to Cc1ccc(Cl)cc1 [4-Chlorotoluene], the “SOLUBIL. IN H2O” value rises from 1 PPM to 5 PPM.

Compared with Nc1ccc(Cl)cc1 [4-Chloroaniline], Nc1ccccc1 [Aniline] is higher in “SOLUBIL. IN H2O” value: 5 PPM for the first, 32500 PPM for the second.

Going from CC(=O)c1ccccc1 [Acetophenone] to OCc1ccccc1 [Benzyl alcohol], the “SOLUBIL. IN H2O” value rises from 5500 PPM to 80000 PPM.

Compared with C=CC#N [Acrylonitrile], C=CCCl [Allyl chloride] is lower in “SOLUBIL. IN H2O” value: 73000 PPM for the first, 3600 PPM for the second.

Compared with Brc1ccccc1 [Bromobenzene], CC(C)c1ccccc1 [iso-Propylbenzene] is higher in “SOLUBIL. IN H2O” value: 400 PPM for the first, 5000 PPM for the second.

Compared with c1ccc2c(c1)oc1ccccc12 [Dibenzofuran], c1ccc2ccccc2c1 [Naphthalene] is higher in “SOLUBIL. IN H2O” value: 1 PPM for the first, 3400 PPM for the second.

Going from BrCBr [Dibromomethane] to CCOCC [Diethyl ether], the “SOLUBIL. IN H2O” value rises from 11500 PPM to 60400 PPM.

Compared with C=C(C)C(=O)OC [Methyl methacrylate], CCCN(CCC)N=O [n-Nitroso-di-n-propylamine] is lower in “SOLUBIL. IN H2O” value: 16000 PPM for the first, 5 PPM for the second.

Clc1cc(Cl)c(Cl)c(Cl)c1Cl [Pentachlorobenzene] and Cc1ccc(C(C)C)cc1 [para-iso-Propyl toluene] are the same in “SOLUBIL. IN H2O” value: 1 PPM for the first, 1 PPM for the second.

Going from ClCCOCCCl [bis(2-Chloroethyl) ether] to CCCCc1ccccc1 [n-Butylbenzene], the “SOLUBIL. IN H2O” value rises from 1 PPM to 5000 PPM.

O=NN1CCCCC1 [n-Nitroso-piperidine] and O=NN1CCOCC1 [n-Nitrosomorpholine] are the same in “SOLUBIL. IN H2O” value: 1000000 PPM for the first, 1000000 PPM for the second.

First: CCCc1ccccc1 [n-Propylbenzene]
Second: CCC(C)c1ccccc1 (stereo not shown) [sec-butylbenzene]
The “SOLUBIL. IN H2O” value of the first is lower: 60 PPM for the first, 320 PPM for the second.

In the case of CC(C)(C)c1ccccc1 [tert-Butlybenzene], the “SOLUBIL. IN H2O” value is listed as 290 PPM.

For Clc1cccc(Cl)c1 [1,3-Dichlorobenzene], the “SOLUBIL. IN H2O” value is given as 11000 PPM and 10000 PPM.

Same assay, conditions: water; cited from earlier work

Going from Cc1ccc(C)c(C)c1 [1,2,4-Trimethyl benzene] to Cc1ccccn1 [2-Picoline], the “SOLUBIL. IN H2O” value rises from 1 PPM to 1000000 PPM.
